Source: patent US11077100B2, “Tetrahydroquinoline derivatives as P2X7 receptor antagonists” (RaQualia Pharma Inc., priority 2017, dated 2021)
pIC50: −log10 of the molar value.

Columns and labels:
rat P2X7 = rat P2X7 (Rattus norvegicus (Rat), UniProt Q64663); assay: Rat P2X7 functional assay (Ca2+ influx, Fluo-4, FDSS); assay type: cell-based; conditions: HEK293 cells stably expressing rat P2X7; BzATP final 10 microM; 7-point dose-response; read-out: Antagonistic activities with respect to the rat P2X7 receptor (IC50)
Protocol: Rat P2X7 Functional Assay
The functional activity of compounds was determined by measuring changes in intracellular calcium concentration using a Ca^2+-sensitive fluorescent dye, Fluo-4 (Molecular Probes). The changes in fluorescent signal were monitored by the cell imaging technology by Hamamatsu Photonics's Functional Drug Screening System (FDSS). Increases in intracellular Ca^2+ concentration were readily detected upon activation with BzATP.
HEK293 cells stably expressing rat P2X7 (GenBank accession number NM_019256) were grown in Corning CellBIND cell culture flasks, in a 5% CO2 humidified incubator to about 80% confluence. Media composition consisted of Dulbecco's Modified Eagle Medium (high glucose), 10% fetal bovine serum ([…]), 100 units/[…] Penicillin, 100 microg/mL Streptomycin and 250 microg/mL Geneticine.
1. […] Plate-out HEK293-rat P2X7 cells (40 microL medium containing 5,000 cells per well) into poly-D-lysine coated 384-well plates (BD Falcon) at 24 h prior to assay.
2. Incubate at 37° C. in 5% CO2.
3. Incubate the plate at 37° C. in 5% CO2 for 1 h.
5. Test compounds were prepared at 100× the test concentration in DMSO by serial dilution with Biomek-FX liquid handling instrument. 33× diluted compound solutions in assay buffer were prepared in intermediate compound plate with Biomek-NX liquid handling instrument. A further 3× dilution occurred in below steps 6 and 7.
6. Add 20 microL of 33× diluted compound solutions into each well and leave the plate for 10 min under the dark at room temperature.
7. Measure activity by FDSS as follows: • Set the assay plate on the stacker of FDSS. • Start the detection of fluorescence intensity at 540 nm by 480 nm exicitation. • After 30 seconds, add 20 microL of assay buffer containing 30 microM BzATP (final 10 microM).
IC50 values for compounds of the present invention were determined from 7-point dose-response studies. Curves were generated using the average of duplicate wells for each data point. Finally, the IC50 values are calculated with the best-fit dose curve determined by XLfit (ID Business Solutions Ltd.).

human P2X7 = human P2X7 (Homo sapiens (Human), UniProt Q99572); assay: Human P2X7 functional assay (Ca2+ influx, Fluo-4, FDSS); assay type: cell-based; conditions: antagonistic activity with respect to the human P2X7 receptor; BzATP final concentration 80 microM
How it was run: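 Ca2+ influx was triggered with BzATP (80 μM final) after a 10-min room-temperature compound preincubation and monitored with Fluo-4 (ex 480/em 540 nm) on FDSS. The cells were HEK293 stably carrying FLAG-tagged human P2X7. Duplicate-averaged 7-point dose-responses gave IC50s.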

rat P2X7, sequence (Q64663 whole entry): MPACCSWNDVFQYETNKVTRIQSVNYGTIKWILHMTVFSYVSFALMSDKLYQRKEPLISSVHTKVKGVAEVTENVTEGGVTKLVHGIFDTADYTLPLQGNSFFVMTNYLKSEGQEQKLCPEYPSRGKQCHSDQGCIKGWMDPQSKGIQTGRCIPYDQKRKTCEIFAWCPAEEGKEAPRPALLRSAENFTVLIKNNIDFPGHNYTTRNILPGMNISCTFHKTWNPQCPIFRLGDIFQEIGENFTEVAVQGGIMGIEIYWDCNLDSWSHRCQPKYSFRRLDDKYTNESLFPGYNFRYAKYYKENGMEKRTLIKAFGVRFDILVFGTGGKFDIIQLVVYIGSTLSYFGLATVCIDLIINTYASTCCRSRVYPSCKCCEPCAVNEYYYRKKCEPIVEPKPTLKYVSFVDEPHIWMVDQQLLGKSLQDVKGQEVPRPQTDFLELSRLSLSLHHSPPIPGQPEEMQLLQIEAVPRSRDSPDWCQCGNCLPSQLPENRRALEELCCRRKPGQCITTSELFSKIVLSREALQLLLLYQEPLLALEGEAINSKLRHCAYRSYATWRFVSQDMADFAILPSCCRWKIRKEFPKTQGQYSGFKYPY
human P2X7, sequence (Q99572 whole entry): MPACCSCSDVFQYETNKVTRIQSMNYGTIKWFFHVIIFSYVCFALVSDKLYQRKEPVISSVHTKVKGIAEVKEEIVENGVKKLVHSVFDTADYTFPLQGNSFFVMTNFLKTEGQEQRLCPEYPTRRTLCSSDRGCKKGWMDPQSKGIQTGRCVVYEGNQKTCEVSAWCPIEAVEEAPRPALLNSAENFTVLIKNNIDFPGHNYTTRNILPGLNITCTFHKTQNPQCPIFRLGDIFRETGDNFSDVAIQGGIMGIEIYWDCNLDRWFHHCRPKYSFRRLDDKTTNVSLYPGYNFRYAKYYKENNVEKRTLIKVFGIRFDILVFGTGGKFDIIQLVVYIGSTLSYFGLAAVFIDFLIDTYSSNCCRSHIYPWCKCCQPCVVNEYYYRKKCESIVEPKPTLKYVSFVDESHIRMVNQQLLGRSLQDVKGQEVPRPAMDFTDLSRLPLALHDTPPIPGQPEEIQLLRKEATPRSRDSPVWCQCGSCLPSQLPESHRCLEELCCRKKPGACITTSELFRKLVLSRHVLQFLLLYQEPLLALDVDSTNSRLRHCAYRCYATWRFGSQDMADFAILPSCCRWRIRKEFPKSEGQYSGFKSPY

SMILES | pIC50 (rat P2X7) | pIC50 (human P2X7)
O=C(NCc1ccc(F)cc1Cl)[C@]1(F)CC[C@@](O)(CN2CC(O)C2)c2ncccc21 (relative stereo) [Example 52, (5S*,8R*)-N-(2-chloro-4-fluorobenzyl)-5-fluoro-8-hy-droxy-8-((3-hydroxy-azetidin-1-yl)methyl)-5,6,7,8-tetrahydro-quinoline-5-carboxamide] | > 6.00 | > 7.30
COC1CN(C[C@]2(O)CC[C@@](F)(C(=O)NCc3ccc(F)cc3Cl)c3cccnc32)C1 (relative stereo) [Example 53, (5S*,8R*)-N-(2-chloro-4-fluorobenzyl)-5-fluoro-8-hydroxy-8-((3-methoxy-azetidin-1-yl)methyl)-5,6,7,8-tetrahydro-quinoline-5-carboxamide] | > 6.00 | > 7.30
CC1(O)CN(C[C@]2(O)CC[C@@](F)(C(=O)NCc3ccc(F)cc3Cl)c3cccnc32)C1 (relative stereo) [Example 54, (5S*,8R*)-N-(2-chloro-4-fluorobenzyl)-5-fluoro-8-hydroxy-8-((3-hydroxy-3-methylazetidin-1-yl)methyl)-5,6,7,8-tetra-hydroquinoline-5-carboxamide] | > 6.00 | > 7.30
COC1(C)CN(C[C@]2(O)CC[C@@](F)(C(=O)NCc3ccc(F)cc3Cl)c3cccnc32)C1 (relative stereo) [Example 55, (5S*,8R*)-N-(2-chloro-4-fluorobenzyl)-5-fluoro-8-hydroxy-8-((3-methoxy-3-methylazetidin-1-yl)methyl)-5,6,7,8-tetra-hydroquinoline-5-carboxamide] | > 6.00 | > 7.30
O=C(NCc1ccc(F)cc1Cl)[C@]1(F)CC[C@@](O)(CNCCO)c2ncccc21 (relative stereo) [Example 56, (5S*,8R*)-N-(2-chloro-4-fluorobenzyl)-5-fluoro-8-hydroxy-8-(((2-hydroxy-ethyl)amino)methyl)-5,6,7,8-tetrahydro-quinoline-5-carboxamide] | > 6.00 | > 7.30
CN(CCO)C[C@]1(O)CC[C@@](F)(C(=O)NCc2ccc(F)cc2Cl)c2cccnc21 (relative stereo) [Example 57, (5S*,8R*)-N-(2-chloro-4-fluorobenzyl)-5-fluoro-8-hydroxy-8-(((2-hydroxyethyl)(meth-yl)amino)methyl)-5,6,7,8-tetrahydroquinoline-5-carboxamide] | > 6.00 | > 7.30
O=C(NCc1c(Cl)cc(Cl)cc1CO)C1CCC(O)c2ncccc21 (centres unmarked) [Example 9, N-(2,4-dichloro-6-(hydroxy-methyl)benzyl)-8-hydroxy-5,6,7,8-tetrahydroquinoline-carboxamide] | > 6.00 | 
NC(=O)CC1CCC(C(=O)NCc2cccc(C(F)(F)F)c2Cl)c2cccnc21 (centres unmarked) [Example 32, (2-amino-2-oxoethyl)-N-(2-chloro-3-(trifluoro-methyl)benzyl)-5,6,7,8-tetra-hydroquinoline-5-carboxamide] | > 6.00 | 
C[C@]1(O)CC[C@@](F)(C(=O)NCc2c(F)cc(Cl)cc2Cl)c2cccnc21 [Example 265, (5S,8S)-N-(2,4-dichloro-6-fluorobenzyl)-5-fluoro-8-hydroxy-8-methyl-5,6,7,8-tetrahydroquinoline-5-carboxamide] | > 6.00 | 
C[C@]1(O)CC[C@@](F)(C(=O)NCc2c(F)cc(F)cc2Cl)c2cccnc21 [Example 266, (5S,8S)-N-(2-chloro-4,6-difluorobenzyl)-5-fluoro-8-hydroxy-8-methyl-5,6,7,8-tetrahydroquinoline-5-carboxamide] | > 6.00 | 
C[C@]1(O)CC[C@@](F)(C(=O)NC2CC2c2ccc(Cl)cc2Cl)c2cccnc21 (stereo partly drawn) [Example 273, (5S,8S)-N-((trans)-2-(2,4-dichlorophenyl)cyclopropyl)-5-fluoro-8-hydroxy-8-methyl-5,6,7,8-tetrahydroquinoline-5-carboxamide] | > 6.00 | 

Second part, the compound after the results:

pIC50 (rat P2X7) | pIC50 (human P2X7) | SMILES
> 6.00 | > 7.30 | COC[C@]1(O)CC[C@@](F)(C(=O)NCc2ccc(Cl)cc2Cl)c2cccnc21 (relative stereo) [Example 41, (5S*,8S*)-N-(2,4-dichlorobenzyl)-5-fluoro-8-hydroxy-8-(methoxymethyl)-5,6,7,8-tetrahydro-quinoline-5-carboxamide]
> 6.00 | > 7.30 | COC[C@]1(O)CC[C@@](F)(C(=O)NCc2ccc(F)cc2Cl)c2cccnc21 (relative stereo) [Example 42, (5S*,8S*)-N-(2-chloro-4-fluoro-benzyl)-5-fluoro-8-hydroxy-8-(methoxymethyl)-5,6,7,8-tetra-hydroquinoline-5-carboxamide]
> 6.00 | > 7.30 | O=C(NCc1ccc(Cl)cc1Cl)[C@]1(F)CC[C@@](O)(CN2CC(O)C2)c2ncccc21 (relative stereo) [Example 51, (5S*,8R*)-N-(2,4-dichlorobenzyl)-5-fluoro-8-hydroxy-8-((3-hydroxyaze-tidin-1-yl)methyl)-5,6,7,8-tetrahydro-quinoline-5-carboxamide]
> 6.00 |  | Cc1cc(Cl)cc(Cl)c1CNC(=O)[C@@]1(F)CC[C@@H](O)c2ncccc21 [Example 126, (5R,8R)-N-(2,4-dichloro-6-methylbenzyl)-5-fluoro-8-hydroxy-5,6,7,8-tetrahydroquinoline-5-carboxamide]
> 6.00 |  | Cc1cc(Cl)cc(Cl)c1CNC(=O)[C@]1(F)CC[C@H](O)c2ncccc21 [Example 127, (5S,8S)-N-(2,4-dichloro-6-methylbenzyl)-fluoro-8-hydroxy-5,6,7,8-tetrahydroquinoline-5-carboxamide]
> 6.00 |  | O=C(NCc1ccc(F)cc1C(F)(F)F)[C@]1(F)CC[C@H](O)c2ncccc21 [Example 144, (5S,8S)-5-fluoro-N-(4-fluoro-2-(trifluoromethyl)benzyl)-8-hydroxy-5,6,7,8-tetrahydroquinoline-5-carboxamide]
> 6.00 |  | O=C(NCc1c(F)cc(Cl)cc1Cl)[C@]1(F)CC[C@H](O)c2ncccc21 [Example 152, (5S,8S)-N-(2,4-dichloro-6-fluorobenzyl)-5-fluoro-8-hydroxy-5,6,7,8-tetrahydroquinoline-5-carboxamide]
> 6.00 |  | Cc1cccc(Cl)c1CNC(=O)[C@]1(F)CC[C@H](O)c2ncccc21 [Example 161, (5S,8S)-N-(2-chloro-6-methylbenzyl)-5-fluoro-8-hydroxy-5,6,7,8-tetrahydroquinoline-5-carboxamide]
> 6.00 |  | O=C(NCc1ccc(F)c(F)c1Cl)[C@]1(F)CC[C@H](O)c2ncccc21 [Example 174, (5S,8S)-N-(2-chloro-3,4-difluorobenzyl)-5-fluoro-8-hydroxy-5,6,7,8-tetrahydroquinoline-5-carboxamide]
> 6.00 |  | O=C(NCc1cccc(C(F)(F)F)c1F)[C@]1(F)CC[C@H](O)c2ncccc21 [Example 175, (5S,8S)-5-fluoro-N-(2-fluoro-3-(trifluoromethyl)benzyl)-8-hydroxy-5,6,7,8-tetrahydroquinoline-5-carboxamide]
> 6.00 |  | O=C(NCc1ccc(C(F)(F)F)cc1Cl)[C@]1(F)CC[C@H](O)c2ncccc21 [Example 187, (5S,8S)-N-(2-chloro-4-(trifluoromethyl)benzyl)-5-fluoro-8-hydroxy-5,6,7,8-tetrahydroquinoline-5-carboxamide]
> 6.00 |  | C[C@]1(O)CC[C@@](F)(C(=O)NCc2ccc(Cl)c(F)c2F)c2cccnc21 [Example 267, (5S,8S)-N-(4-chloro-2,3-difluorobenzyl)-5-fluoro-8-hydroxy-8-methyl-5,6,7,8-tetrahydroquinoline-5-carboxamide]
> 6.00 |  | CO[C@H]1CC[C@@](F)(C(=O)NCc2c(F)cc(Cl)cc2Cl)c2cccnc21 [Example 335, (5S,8S)-N-(2,4-dichloro-6-fluorobenzyl)-5-fluoro-8-methoxy-5,6,7,8-tetrahydroquinoline-5-carboxamide]
> 6.00 |  | CS(=O)(=O)C1CC[C@@](F)(C(=O)NCc2ccc(Cl)cc2Cl)c2cccnc21 (some centres unmarked) [Example 350]
 | 7.00 to 7.30 | O=C(NCc1cccc(Cl)c1Cl)[C@@]1(F)CC[C@H](F)c2ncccc21 [Example 354, (5R,8S)-N-(2,3-dichlorobenzyl)-5.8-difluoro-5,6,7,8-tetrahydroquinaline-5-carboxamide]
